Measurements as given in patent US12616666B2, “Coenzyme Q10 formulations in the treatment and prevention of epidermolysis bullosa” (BPGbio, Inc., priority 2017, dated 2026).

Key:
[1] = tested on: adult fibroblasts; experiment: Cell proliferation with increasing Coenzyme Q10 concentration; type: cell-based, human; settings: normal fibroblasts, increasing concentration (FIG. 1)
Text: (§1) When applied topically to melanoma tumors in nude mice, a 1.0% CoQ10 formulation inhibited growth and angiogenesis. The mechanism involves the shifting of the cellular bioenergetics from cytoplasmic glycolysis towards mitochondrial oxidative phosphorylation (AACR 2011). The shift in cellular metabolic pathways in cancer including SCC and melanoma results in the recapitulation of the p53 regulated apoptotic potential by re-establishing the balance of pro-apoptic Bcl-2/Bax ratios in a manner conducive for cell death.

[2] = tested on: SCC cells; experiment: Apoptosis Array gene regulation; type: cell-based; settings: 100 uM Q10, SCC cells
Protocol: Table 3, shown above and reproduced below, lists the genes in SCC cells that are regulated by 100 uM Q10 treatment when analyzed by the Apoptosis Array.

[3] = tested on: Human aortic smooth muscle cells (HASMC); experiment: Western Blot of ACL expression in normal control cells; type: cell-based; settings: 50 μM or 100 μM
Protocol: (§2) FIG. 3A and FIG. 3B show the effect of Coenzyme Q10 treatment (50 μM or 100 μM) on expression of ATP Citrate lyase (ACL) in SK-MEL-28 melanoma cells. Human aortic smooth muscle cells (HASMC) were used as a control.

[4] = tested on: SK-MEL-28 melanoma cells; experiment: Western Blot of protein expression; type: cell-based
Protocol: FIG. 2A and FIG. 2B show the expression of isocitrate dehydrogenase (IDH-1) in SK-MEL-28 melanoma cells treated with increasing concentration of Coenzyme Q10 (50 μM or 100 μM).
as §2
FIG. 4A and FIG. 4B show the effect of Coenzyme Q10 on expression of p53, pl4ARF and MDM2 in SK-MEL-28 melanoma cells.
Bcl-2, Bax and Caspase 3 are pro- and anti-apoptotic markers regulating cell death pathways. A beta-actin loading control was used.

[5] = tested on: SCC cell line (SCC-25); experiment: Proteomic analysis of SCC cell line; type: cell-based; settings: 100 uM CoQ10, SCC-25
Protocol: Next, a proteomic analysis of an in-vitro model of squamous cell carcinoma, SCC cell line (SCC-25), was undertaken to delineate the underlying mechanistic regulating effect of the CoQ10 compositions of the invention. Table 1, shown above and reproduced below, lists the proteins identified to have a differential response to 100 uM CoQ10 treatment in SCC cells at 6 and 24 hours.

[6] = Heat stability of CoQ10 solubilized in Polysorbate 80; type: physicochemical; settings: 25-60% CoQ10 solubilized in Polysorbate 80, heated for several hours at 55° C.
Protocol: Coenzyme Q10 […] is a deep yellow-orange powder and is very hydrophobic with a melting point of approximately 48 degrees centigrade. The active ingredient, CoQ10 […] Cream, ubidecarenone, USP may be adversely affected by heat and light, according to the literature. […] Heating the mixture to 50-55° C. (i.e., 2-7° C. above the melting point of CoQ10) greatly speeds the solubilization of CoQ10. To manufacture the topical CoQ10 cream, two CoQ10 concentrate phases (CoQ10/Polysorbate 80 and water-lecithin-glycol-phenoxyethanol) were each heated separately to 50-55° C. with the water phase added to the solubilized CoQ10 and were mixed with high shear homogenization to form a microemulsion concentrate of CoQ10. The CoQ10 concentrate was then added to a water-in-oil (W/O) cream emulsion base to produce the final CoQ10 cream. The final concentration of CoQ10 in the cream was 3.0%. The CoQ10 3% cream is further described in International Publication No. WO2008/116135, the entire content of which is incorporated by reference in its entirety herein.

[7] = tested on: squamous cell carcinoma (SCC-25) cell line; experiment: Cell proliferation with increasing Coenzyme Q10 concentration; type: cell-based; settings: SCC-25, increasing concentration (FIG. 1)
Text: as §1

[8] = tested on: normal human keratinocytes; experiment: as above; type: cell-based; settings: increasing concentration (FIG. 1)
Text: as §1

[9] = tested on: melanoma (SK-MEL-28) cell line; experiment: as above; type: cell-based; settings: SK-MEL-28, increasing concentration (FIG. 1)
Text: as §1

[10] = tested on: IL6; experiment: Upregulation of inflammatory cytokines after topical CoQ10; settings: topical application
[11] = SK-MEL-28, 50 μM or 100 μM for 12 or 24 hours
[12] = direction: Decrease, at 6 and 24 hr
[13] = direction: Decrease, at 24 hr only
[14] = direction: Increase, at 6 and 24 hr

COC1=C(OC)C(=O)C(C/C=C(\C)CC/C=C(\C)CC/C=C(\C)CC/C=C(\C)CC/C=C(\C)CC/C=C(\C)CC/C=C(\C)CC/C=C(\C)CC/C=C(\C)CCC=C(C)C)=C(C)C1=O [CoQ10, Coenzyme Q10]
cell proliferation rate [1]: no effect | BCL2L1 gene Regulation ([2]; 6 hours): Down regulated at 6 hours and | CARD6 gene Regulation ([2]; 6 hours): Down regulated at 6 hours. | AKT1 gene Regulation ([2]; 24 hours): then up regulated at 24 hours. | BAG4 gene Regulation ([2]; 24 hours): Up regulated at 24 hours. | BAX gene Regulation ([2]; 24 hours): Up regulated at 24 hours. | BCL2L1 gene Regulation ([2]; 24 hours): then up regulated at 24 hours. | BNIP3 gene Regulation ([2]; 24 hours): Down regulated at 24 hours. | CASP6 gene Regulation ([2]; 24 hours): Up regulated at 24 hours. | CASP7 gene Regulation ([2]; 24 hours): Up regulated at 24 hours. | GADD45A gene Regulation ([2]; 24 hours): Up regulated at 24 hours. | TP53 gene Regulation ([2]; 24 hours): Up regulated at 24 hours. | TP73 gene Regulation ([2]; 24 hours): then up regulated at 24 hours. | expression of ATP Citrate lyase (ACL) [3]: not observed | expression of MDM2 ([4]; SK-MEL-28 (FIG. 4)): decrease | expression of ATP Citrate lyase (ACL) ([4]; SK-MEL-28, 50 μM or 100 μM): concentration dependent decrease | expression of isocitrate dehydrogenase (IDH-1) ([4]; SK-MEL-28, 50 μM or 100 μM): concentration dependent increase | expression of anti-apoptotic bcl-2 protein [4, 11]: concentration dependent decrease | expression of caspase 3 [4, 11]: progressive dose-dependent increase | expression of pro-apoptotic bax [4, 11]: concentration dependent increase | NM23 protein (NME1) Response ([5]; at 24 hr): decrease at 24 hr | Keratin 1 (KRT1) Response (fold change) [5, 12]: Decrease (2.3) at 6 and 24 hr fold change | Transaldolase 1 (TALDO1) Response (fold change) [5, 12]: Decrease (1.5) at 6 and 24 hr fold change | Rho GDP dissociation inhibitor (GDI) alpha (ARHGDIA) Response (fold change) ([5]; direction: Decrease, at 6 hr only): Decrease (1.5) at 6 hr only fold change | Proteasome activator subunit 3 (PSME3) Response (fold change) [5, 13]: Decrease (1.3) at 24 hr only fold change | Protessome Beta 7 (PSMB7) Response (fold change) [5, 13]: Decrease (1.6) at 24 hr only fold change | Heat shock 27 kDa protein 1 (HSPB1) Response (fold change) [5, 14]: Increase (−1.9) at 6 and 24 hr fold change | Keratin 13 (KRT13) Response (fold change) [5, 14]: Increase (−1.5) at 6 and 24 hr fold change | Keratin 14 (KRT14) Response (fold change) [5, 14]: Increase (−1.6) at 6 and 24 hr fold change | NM23 protein (NME1) Response (fold change) ([5]; printed direction: increase, at 6 hr): increase (−1.2) at 6 hr, fold change | breakdown of CoQ10 on heating [6]: no measurable breakdown | cell proliferation rate [7]: dose dependent decrease | cell proliferation rate ([7]; listed as Coenzyme Q10): concentration dependent decrease | cell proliferation rate [8]: no effect | cell proliferation rate [9]: dose dependent decrease | cell proliferation rate ([9]; listed as Coenzyme Q10): concentration dependent decrease | upregulation of inflammatory cytokines (IL6) [10]: block the upregulation
